Legend:
HT-29 = assay: Antiproliferative activity against human HT-29 cells assessed as reduction in cell growth after 48 hrs by MTT assay; type: functional, cell-based; details: HT-29, 48 h
A549 [1] = assay: Antiproliferative activity against human A549 cells assessed as reduction in cell growth after 48 hrs by MTT assay; type: functional, cell-based; details: A549, 48 h
A2780 = assay: Antiproliferative activity against paclitaxel-resistant human A2780 cells assessed as reduction in cell growth after 48 hrs by MTT assay; type: functional, cell-based; details: A2780, 48 h
A549 [2] = assay: Antiproliferative activity against cisplatin resistant human A549 cells assessed as reduction in cell growth after 48 hrs by MTT assay; type: functional, cell-based; details: A549, 48 h
HEK293 = assay: Cytotoxicity against HEK293 cells assessed as reduction in cell growth after 48 hrs by MTT assay; type: cell-based; details: Homo sapiens, HEK293, 48 h
MCF7 = assay: Antiproliferative activity against human MCF7 cells assessed as reduction in cell growth after 48 hrs by MTT assay; type: functional, cell-based; details: MCF7, 48 h
HeLa = assay: Antiproliferative activity against human HeLa cells assessed as reduction in cell growth after 48 hrs by MTT assay; type: functional, cell-based
[3] = Inhibition of porcine brain tubulin polymerization measured for 20 mins by spectrometric assay; type: tissue-based, Sus scrofa

Structure (SMILES)	IC50 (HT-29) [µM]	other results
COc1cc(-c2nnc3n2N=C(Nc2ccc(Br)cc2)CS3)cc(OC)c1OC	18.6	–
COc1cc(-c2nnc3n2N=C(c2ccc(F)c(F)c2)CS3)cc(OC)c1OC	> 20	–
COc1cc(-c2nnc3n2N=C(c2cccs2)CS3)cc(OC)c1OC	4.25	–
COc1cc(-c2nnc3n2N=C(NCc2ccc(C)cc2)CS3)cc(OC)c1OC	> 20	–
COc1cc(-c2nnc3n2N=C(c2ccco2)CS3)cc(OC)c1OC	10.8	–
COc1cc(-c2nnc3n2N=C(NCc2ccc(Cl)cc2)CS3)cc(OC)c1OC	> 20	–
COc1cc(NC2=Nn3c(nnc3-c3cc(OC)c(OC)c(OC)c3)SC2)cc(OC)c1OC	> 20	–
COc1ccc(CCNC2=Nn3c(nnc3-c3cc(OC)c(OC)c(OC)c3)SC2)cc1	> 20	–
COc1cc(-c2nnc3n2N=C(NCCc2ccc(Cl)cc2)CS3)cc(OC)c1OC	> 20	–
COc1cc(-c2nnc3n2N=C(NCc2ccccc2)CS3)cc(OC)c1OC	> 20	–
COc1cc(-c2nnc3n2N=C(NCCc2ccccc2)CS3)cc(OC)c1OC	> 20	–
COc1cc(-c2nnc3n2N=C(c2cccc(Br)c2)CS3)cc(OC)c1OC	15.4	–
COc1cc(C2=Nn3c(nnc3-c3ccc(C)cc3)SC2)cc(OC)c1OC	> 20	–
COc1ccc(/C=C\c2cc(OC)c(OC)c(OC)c2)cc1O [COMBRETASTATIN A4]	–	IC50 (A549 [1]): 0.021 µM; IC50 (A2780): 72.8 µM; IC50 (A549 [2]): 130 µM; IC50 (HEK293): 45.7 µM
COc1cc(-c2nnc3n2N=C(Nc2ccc(F)cc2)CS3)cc(OC)c1OC	8.11	–
COc1cc(-c2nnc3n2N=C(c2cccc(C)c2)CS3)cc(OC)c1OC	13.6	–
COc1cc(-c2nnc3n2N=C(c2cc4ccccc4oc2=O)CS3)cc(OC)c1OC	10.4	–
COc1ccc(NC2=Nn3c(nnc3-c3cc(OC)c(OC)c(OC)c3)SC2)cc1	> 20	–
COc1cc(-c2nnc3n2N=C(c2ccc(O)cc2)CS3)cc(OC)c1OC	14.1	–
COc1cc(-c2nnc(SCC(=O)c3ccc(C)cc3F)n2N)cc(OC)c1OC	0.131	IC50 (A549 [1]): > 100 µM; IC50 (MCF7): > 100 µM; IC50 (HeLa): 0.04 µM
COc1cc(C2=Nn3c(nnc3-c3cc(OC)c(OC)c(OC)c3)SC2)cc(OC)c1OC	19.9	–
COc1cc(-c2nnc3n2N=C(c2ccc(-c4ccccc4)cc2)CS3)cc(OC)c1OC	13.7	–
COc1cc(-c2nnc3n2N=C(c2ccc([N+](=O)[O-])cc2)CS3)cc(OC)c1OC	> 20	–
COc1ccc(-c2nnc3n2N=C(c2cc(OC)c(OC)c(OC)c2)CS3)cc1O	9.86	–
COc1cc(-c2nnc3n2N=C(Nc2ccc(Cl)cc2)CS3)cc(OC)c1OC	2.84	–
COc1cccc(C2=Nn3c(nnc3-c3cc(OC)c(OC)c(OC)c3)SC2)c1	5.94	–
COc1ccc(C2=Nn3c(nnc3-c3cc(OC)c(OC)c(OC)c3)SC2)cc1O	9.81	–

Structure (SMILES)	IC50 (HT-29) [µM]	other results
COc1ccc(C2=Nn3c(nnc3-c3cc(OC)c(OC)c(OC)c3)SC2)cc1	0.18	IC50 (A549 [1]): 0.077 µM; IC50 (MCF7): 0.205 µM; IC50 (A2780): 62.2 µM; IC50 (A549 [2]): 67.2 µM; IC50 (HEK293): > 100 µM; IC50 (HeLa): 0.018 µM; IC50 [3]: 2.39 µM
COc1cc(-c2nnc3n2N=C(c2ccccc2C)CS3)cc(OC)c1OC	16.1	–
COc1cc(-c2nnc3n2N=C(c2ccc(C(F)(F)F)cc2)CS3)cc(OC)c1OC	0.29	IC50 (A549 [1]): 0.286 µM; IC50 (MCF7): 0.241 µM; IC50 (A2780): 86.5 µM; IC50 (A549 [2]): > 200 µM; IC50 (HEK293): > 100 µM; IC50 (HeLa): 0.019 µM; IC50 [3]: 4.82 µM
COc1cc(-c2nnc3n2N=C(Nc2ccc(N4CCOCC4)cc2)CS3)cc(OC)c1OC	> 20	–
COc1cc(-c2nnc3n2N=C(c2cccc4ccccc24)CS3)cc(OC)c1OC	6.02	–
COc1cc(-c2nnc3n2N=C(NCCc2ccc(C)cc2)CS3)cc(OC)c1OC	> 20	–
COc1cc(-c2nnc3n2N=C(Nc2cccc(F)c2)CS3)cc(OC)c1OC	> 20	–
COc1cc(-c2nnc3n2N=C(Nc2ccccc2C)CS3)cc(OC)c1OC	> 20	–
COc1cc(-c2nnc3n2N=C(c2ccccc2)CS3)cc(OC)c1OC	5.65	–
COc1cc(-c2nnc3n2N=C(NCc2ccc(Br)cc2)CS3)cc(OC)c1OC	> 20	–
COc1ccc(-c2nnc3n2N=C(c2cc(OC)c(OC)c(OC)c2)CS3)cc1OC	> 20	–
COc1cc(-c2nnc3n2N=C(Nc2ccccc2)CS3)cc(OC)c1OC	3.25	–
COc1cc(-c2nnc3n2N=C(NCCc2ccc(F)cc2)CS3)cc(OC)c1OC	> 20	–
COc1cc(-c2nnc3n2N=C(Nc2ccc(C)cc2)CS3)cc(OC)c1OC	> 20	–
COc1cc(-c2nnc3n2N=C(Nc2c(Cl)cccc2Cl)CS3)cc(OC)c1OC	> 20	–
COc1cc(-c2nnc3n2N=C(C2CC2)CS3)cc(OC)c1OC	> 20	–
COc1cc(C2=Nn3c(nnc3-c3ccc(Cl)cc3)SC2)cc(OC)c1OC	> 20	–
COc1cc(-c2nnc3n2N=C(Nc2ccc(S(C)(=O)=O)cc2)CS3)cc(OC)c1OC	> 20	–
COc1cc(-c2nnc3n2N=C(C)CS3)cc(OC)c1OC	15.8	–
COc1ccc(-c2nnc3n2N=C(c2cc(OC)c(OC)c(OC)c2)CS3)cc1	> 20	–
COc1cc(-c2nnc3n2N=C(c2ccc(F)cc2)CS3)cc(OC)c1OC	8.32	–
CCC1=Nn2c(nnc2-c2cc(OC)c(OC)c(OC)c2)SC1	15.4	–
COc1cc(-c2nnc3n2N=C(c2ccc(Br)cc2)CS3)cc(OC)c1OC	5.18	–
COc1cc(-c2nnc3n2N=C(Nc2ccccc2F)CS3)cc(OC)c1OC	2.9	–
COc1cccc(NC2=Nn3c(nnc3-c3cc(OC)c(OC)c(OC)c3)SC2)c1	12.2	–
COc1cc(C2=Nn3c(nnc3-c3ccc(F)cc3)SC2)cc(OC)c1OC	19.7	–
